We go through 24 molecules from PubChem BioAssay AID330 (DTP/NCI, 2004).

The test system of this assay is P388 leukemia ip, CD2F1 mice, survival T/C. Description: NCI In Vivo Anticancer Drug Screen. Data for tumor model P388 Leukemia (intraperitoneal) in CD2F1 (CDF1) mice. The following applies: endpoint: median survival time, higher = longer survival. The method, boiled down:
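Mice carrying the transplanted tumor received test compound or vehicle. Survival was recorded in each group, and the value is the treated-group measurement divided by that of the vehicle-treated control group.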

The mark [1] stands for this setting: dose: 60.0 mg/kg/injection, schedule: Q01DX005 (ip), vehicle: saline with Tween-80.
The mark [2] stands for this setting: dose: 120.0 mg/kg/injection, schedule: Q01DX005 (ip), vehicle: saline with Tween-80.
The mark [3] stands for this setting: dose: 240.0 mg/kg/injection, schedule: Q01DX005 (ip), vehicle: saline with Tween-80.
Where [4] appears, read: dose: 50.0 mg/kg/injection, schedule: Q01DX005 (ip), vehicle: Klucel (hydroxypropylcellulose) (HPC).
Setting [5] is: dose: 50.0 mg/kg/injection, schedule: Q01DX009 (ip), vehicle: saline with Tween-80.
Where [6] appears, read: dose: 100.0 mg/kg/injection, schedule: Q01DX009 (ip), vehicle: saline with Tween-80.
The mark [7] stands for this setting: dose: 200.0 mg/kg/injection, schedule: Q01DX009 (ip), vehicle: saline with Tween-80.
[8] abbreviates: dose: 6.25 mg/kg/injection, schedule: Q01DX005 (ip), vehicle: saline.
The mark [9] stands for this setting: dose: 12.5 mg/kg/injection, schedule: Q01DX005 (ip), vehicle: saline.
Where [10] appears, read: dose: 25.0 mg/kg/injection, schedule: Q01DX005 (ip), vehicle: saline.
Where [11] appears, read: dose: 100.0 mg/kg/injection, schedule: Q01DX005 (ip), vehicle: Klucel (hydroxypropylcellulose) (HPC).
Where [12] appears, read: dose: 200.0 mg/kg/injection, schedule: Q01DX005 (ip), vehicle: Klucel (hydroxypropylcellulose) (HPC).
Setting [13] is: dose: 50.0 mg/kg/injection, schedule: Q01DX009 (ip), vehicle: saline.
Setting [14] is: dose: 100.0 mg/kg/injection, schedule: Q01DX009 (ip), vehicle: saline.
Setting [15] is: dose: 200.0 mg/kg/injection, schedule: Q01DX009 (ip), vehicle: saline.
[16] abbreviates: dose: 100.0 mg/kg/injection, schedule: Q04DX003 (ip), vehicle: saline with Tween-80.
The mark [17] stands for this setting: dose: 200.0 mg/kg/injection, schedule: Q04DX003 (ip), vehicle: saline with Tween-80.

Several values for one entry are separate records, joined by “and”; a condition that tells them apart may be missing. Equal entries are not always repeated. Toxic doses and inconclusive results are not listed.

On to `CCCSc1ncnc2nc(C)[nH]c12`, for which the T/C (dose: 0.39 mg/kg/injection, schedule: Q01DX009 (ip), vehicle: saline with Tween-80) is 95 % of control; the T/C (dose: 0.78 mg/kg/injection, schedule: Q01DX009 (ip), vehicle: saline with Tween-80) was 92 % of control; the T/C (dose: 1.56 mg/kg/injection, schedule: Q01DX009 (ip), vehicle: saline with Tween-80) was 98 % of control; the T/C (dose: 3.13 mg/kg/injection, schedule: Q01DX009 (ip), vehicle: saline with Tween-80) is 94 % of control.
For the molecule `Cc1onc(-c2c(Cl)cccc2Cl)c1C(=O)Oc1ccc(-c2ccc(OC(=O)c3c(-c4c(Cl)cccc4Cl)noc3C)cc2)cc1`, the T/C under setting [1] is 108 % of control, the T/C under setting [2] is 102 % of control and the T/C under setting [3] was 89 % of control.
For the molecule `CN(C)CC(O)Cn1ccnc1[N+](=O)[O-]` (configuration not stated), the T/C is, setting by setting: (dose: 12.5 mg/kg/injection, schedule: Q01DX009 (ip), vehicle: water) 101 % of control; (dose: 25.0 mg/kg/injection, schedule: Q01DX009 (ip), vehicle: water) 101 % of control; (dose: 50.0 mg/kg/injection, schedule: Q01DX009 (ip), vehicle: water) 111 % of control; (dose: 100.0 mg/kg/injection, schedule: Q01DX009 (ip), vehicle: water) 111 % of control; (dose: 200.0 mg/kg/injection, schedule: Q01DX009 (ip), vehicle: water) 113 % of control.
Take `COCC1(CCC(C)=C(C)C)Nc2ccc(C(=O)O)cc2CC1Cl` (configuration not stated): the T/C runs as follows: (dose: 1.25 mg/kg/injection, schedule: Q01DX005 (ip), vehicle: Klucel (hydroxypropylcellulose) (HPC)) 98 % of control; (dose: 2.5 mg/kg/injection, schedule: Q01DX005 (ip), vehicle: Klucel (hydroxypropylcellulose) (HPC)) 101 % of control.
In the case of `CCN=C(NCC)c1ccc(NC(=O)Nc2ccc(NC(=O)Nc3ccc(C(=NCC)NCC)cc3)cc2)cc1`, the T/C (dose: 3.12 mg/kg/injection, schedule: Q01DX005 (ip), vehicle: Klucel (hydroxypropylcellulose) (HPC)) was 107 % of control; the T/C (dose: 6.25 mg/kg/injection, schedule: Q01DX005 (ip), vehicle: Klucel (hydroxypropylcellulose) (HPC)) was 111 % of control; the T/C (dose: 12.5 mg/kg/injection, schedule: Q01DX005 (ip), vehicle: Klucel (hydroxypropylcellulose) (HPC)) was 116 % of control; the T/C (dose: 25.0 mg/kg/injection, schedule: Q01DX005 (ip), vehicle: Klucel (hydroxypropylcellulose) (HPC)) was 156 % of control; the T/C under setting [4] was 122 % of control.
With `CC(=O)C(CO)C(=O)Nc1ccccc1` (configuration not stated), the T/C was 100 % of control under setting [5], 95 % of control under setting [6] and 95 % of control under setting [7].
In the case of `CCOC(=O)C1=C(C)NC(C)=C(C(=O)OCC)C1c1ccc(OC)c(OC)c1`, the T/C is, setting by setting: (dose: 25.0 mg/kg/injection, schedule: Q01DX009 (ip), vehicle: other) 106 % of control; (dose: 50.0 mg/kg/injection, schedule: Q01DX009 (ip), vehicle: other) 103 % of control; (dose: 100.0 mg/kg/injection, schedule: Q01DX009 (ip), vehicle: other) 97 % of control; (dose: 200.0 mg/kg/injection, schedule: Q01DX009 (ip), vehicle: other) 97 % of control; (dose: 400.0 mg/kg/injection, schedule: Q01DX009 (ip), vehicle: other) 88 % of control.
With `O=C1c2ccccc2-c2c1nc1ccccc1[n+]2[O-]`, the T/C was 102 % of control under setting [8], 103 % of control under setting [9] and 96 % of control under setting [10].
For the molecule `CCOC(=O)/C=C(/C)Sc1cc(O)ccc1O`, the T/C is, setting by setting: under setting [5], 102 % of control; under setting [6], 111 % of control; under setting [7], 109 % of control.
Turning to `O=C1C=CC(=O)C2(CO)OC12` (configuration not stated), the T/C was 95 % of control (dose: 1.88 mg/kg/injection, schedule: Q04DX002 (ip), vehicle: saline with Tween-80) and 102 % of control (dose: 3.75 mg/kg/injection, schedule: Q04DX002 (ip), vehicle: saline with Tween-80).
For `O=C1C=C(NCc2nc3ccccc3[nH]2)C(c2ccccc2)N1c1ccccc1` (configuration not stated), the T/C under setting [4] is 100 % of control, the T/C under setting [11] was 96 % of control and the T/C under setting [12] was 93 % of control.
Consider `COP(=O)(O)Oc1ccccc1` (tested in a mixture with another compound), for which the T/C under setting [13] is 101 % of control, the T/C under setting [14] was 100 % of control and the T/C under setting [15] was 99 % of control.
For `Nc1ccncc1C(=O)O`, the T/C by setting is: under setting [5], 99 % of control; under setting [6], 99 % of control; under setting [7], 96 % of control.
As for `CC(C)N1COC2Cc3ccccc3CC21` (configuration not stated), the T/C under setting [8] was 99 % of control; the T/C under setting [9] is 101 % of control; the T/C under setting [10] is 101 % of control and 110 % of control; the T/C (dose: 50.0 mg/kg/injection, schedule: Q01DX005 (ip), vehicle: saline) was 117 % of control and 120 % of control and 121 % of control.
As to `CCCCCCC(CCC1CCCCC1)C(=O)O` (configuration not stated), the T/C (dose: 50.0 mg/kg/injection, schedule: Q01DX001 (ip), vehicle: saline with Tween-80) was 109 % of control; the T/C (dose: 100.0 mg/kg/injection, schedule: Q01DX001 (ip), vehicle: saline with Tween-80) was 109 % of control; the T/C (dose: 200.0 mg/kg/injection, schedule: Q01DX001 (ip), vehicle: saline with Tween-80) was 100 % of control.
In the case of `Nc1ccc(C(=O)O)c(C(=O)O)c1`, the T/C under setting [5] was 100 % of control; the T/C (dose: 50.0 mg/kg/injection, schedule: Q04DX003 (ip), vehicle: saline with Tween-80) is 91 % of control; the T/C under setting [6] was 104 % of control; the T/C under setting [16] is 91 % of control; the T/C under setting [7] is 100 % of control; the T/C under setting [17] was 91 % of control.
Take `O=C1CC2(CCc3ccccc32)C(=O)N1CN1CCOCC1` (configuration not stated): the T/C is, setting by setting: under setting [1], 100 % of control; under setting [2], 104 % of control; under setting [3], 100 % of control.
For the molecule `O=C(C[N+]12CN3CN(CN(C3)C1)C2)c1ccc(Cl)cc1`, the T/C (dose: 66.0 mg/kg/injection, schedule: Q04DX003 (ip), vehicle: saline sonified) was 104 % of control; the T/C (dose: 100.0 mg/kg/injection, schedule: Q04DX003 (ip), vehicle: saline sonified) is 122 % of control; the T/C (dose: 150.0 mg/kg/injection, schedule: Q04DX003 (ip), vehicle: saline sonified) was 118 % of control.
On to `COc1ccc(Cl)c2c(N=Nc3ccccc3[N+](=O)[O-])c(O)[nH]c12`, for which the T/C runs as follows: (dose: 15.0 mg/kg/injection, schedule: Q01DX005 (ip), vehicle: saline with Tween-80) 103 % of control; (dose: 30.0 mg/kg/injection, schedule: Q01DX005 (ip), vehicle: saline with Tween-80) 99 % of control; under setting [1], 95 % of control; under setting [3], 87 % of control.
As to `CCOc1c(C)cc(Cc2ccc3c(c2)OCO3)cc1C`, the T/C is, setting by setting: (dose: 50.0 mg/kg/injection, schedule: Q01DX005 (ip), vehicle: saline with Tween-80) 108 % of control; (dose: 100.0 mg/kg/injection, schedule: Q01DX005 (ip), vehicle: saline with Tween-80) 101 % of control; (dose: 200.0 mg/kg/injection, schedule: Q01DX005 (ip), vehicle: saline with Tween-80) 92 % of control.
On to `O=C(NNc1ccccc1)NN(C(=O)Nc1cccc(Cl)c1)c1ccccc1`, for which the T/C runs as follows: under setting [4], 96 % of control; under setting [11], 104 % of control; under setting [12], 100 % of control.
In the case of `O=Cc1ccc(C=O)cc1`, the T/C (dose: 100.0 mg/kg/injection, schedule: Q04DX002 (ip), vehicle: saline with Tween-80) was 98 % of control; the T/C (dose: 200.0 mg/kg/injection, schedule: Q04DX002 (ip), vehicle: saline with Tween-80) was 102 % of control; the T/C (dose: 400.0 mg/kg/injection, schedule: Q04DX002 (ip), vehicle: saline with Tween-80) is 102 % of control.
On to `O=C(c1ccccc1)C1CCCN(c2ccccc2)S1(=O)=O` (configuration not stated), for which the T/C runs as follows: under setting [16], 98 % of control; under setting [17], 104 % of control; (dose: 400.0 mg/kg/injection, schedule: Q04DX003 (ip), vehicle: saline with Tween-80) 94 % of control.
In the case of `C=C1SC(=Nc2cccc(OC)c2)N(c2nc(Cl)nc(Cl)n2)C12CCCCC2`, the T/C reads like this: under setting [13], 100 % of control; under setting [14], 101 % of control; under setting [15], 100 % of control.
